Molecules are shown by their SMILES. The source made the active and inactive calls. The rule behind the calls is not given here.

The Kd is the concentration at which binding is half-saturated. Low values mean tighter binding, high ones weaker binding. One may read the inhibition as the percentage by which the read-out fell short of the control.

In data set [1] the target is T1, TNF receptor-associated factor 6 (Homo sapiens, UniProt Q9Y4K3).
T1 sequence (Q9Y4K3 whole entry): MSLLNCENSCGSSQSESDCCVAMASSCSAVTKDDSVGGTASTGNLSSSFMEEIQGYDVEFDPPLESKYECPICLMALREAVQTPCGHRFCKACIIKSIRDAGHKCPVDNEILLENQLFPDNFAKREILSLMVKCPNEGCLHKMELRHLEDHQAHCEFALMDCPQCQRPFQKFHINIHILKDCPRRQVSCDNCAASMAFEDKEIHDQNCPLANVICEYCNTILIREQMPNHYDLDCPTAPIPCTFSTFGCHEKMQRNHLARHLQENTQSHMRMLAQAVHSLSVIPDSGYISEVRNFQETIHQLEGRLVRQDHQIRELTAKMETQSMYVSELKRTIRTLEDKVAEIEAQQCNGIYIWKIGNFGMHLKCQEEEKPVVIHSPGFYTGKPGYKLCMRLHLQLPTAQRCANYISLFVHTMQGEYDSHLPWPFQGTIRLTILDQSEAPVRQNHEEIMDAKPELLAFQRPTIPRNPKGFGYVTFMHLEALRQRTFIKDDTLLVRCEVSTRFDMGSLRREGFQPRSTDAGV
The data set is described as follows: Inhibition of human TRAF6 interaction with biotinylated RANK peptide by NMR interaction analysis.

Data set [2] in a line: Cytotoxicity against BALB/c mouse primary bone marrow derived monocytes after 7 days by osteoclast differentiation/AlamarBlue assay. The conditions noted are these: monocyte, 168 h. It counts as cell-based. For orientation: Resazurin is reduced to fluorescent resorufin, in cell work by metabolically active cells.
Data set [3] concerns the target T2, TNF receptor-associated factor 6 (Homo sapiens) (UniProt Q9Y4K3).
T2 sequence (whole entry): T1 sequence (Q9Y4K3 whole entry)
The data set is described as follows: Binding affinity to human TRAF6 using immobilized biotinylated RANK peptide from by SPR analysis. In general terms: Surface plasmon resonance follows binding to a sensor surface in real time, without labels.

Data set [4] relates to Monocyte. The data set is described as follows: Inhibition of BALB/c mouse primary bone marrow derived monocytes differentiation after 7 days by osteoclast differentiation assay. Type of data set: functional, cell-based.
Data set [5] addresses T2, TNF receptor-associated factor 6 (Homo sapiens). The data set is described as follows: Induction of human TRAF6 aggregation by NMR titration.
The target is the same in data set [6]. The conditions noted are these: 200 uM.
Description: Competitive inhibition of human TRAF6 interaction with biotinylated RANK peptide at 200 uM by NMR interaction analysis
Data set [7] relates to Monocyte. The data set is described as follows: Inhibition of BALB/c mouse primary bone marrow derived monocytes differentiation after 7 days at 150 uM by osteoclast differentiation assay. It counts as functional. As to conditions: 168 h.

Compound `O=C(Cn1c(=O)sc2ccc(Cl)cc21)Nc1ccc(C(=O)O)cc1` gave a Kd in data set [1] of 1700 µM. This counts as millimolar.

On to `CS(=O)(=O)NC(=O)c1ccc(NC(=O)Cn2c(=O)sc3ccc(Cl)cc32)cc1`, for which the Kd in data set [1] was 990 µM.

Consider `O=C(Cn1c(=O)sc2ccccc21)Nc1ccc(C(=O)O)cc1`, for which the Activity result in data set [2] is recorded as “Non-toxic”. The compound further showed a Kd in data set [1] of 1900 µM. Besides, the inhibition result (in data set [3]; with Monocyte [4]) was “Active” in each case. The outcome in data set [5] was inactive.

The compound `COc1ccc(S(=O)(=O)NC(=O)c2ccc(NC(=O)Cn3c(=O)sc4ccc(Cl)cc43)cc2)cc1Cl` came in with a Kd in data set [1] of 35 µM. Moreover, the inhibition result in data set [6] was “Active”. In addition, at 150 µM the inhibition with Monocyte [7] was 40%. For the same compound, the outcome in data set [5] was inactive.

The record behind these values is ChEMBL document CHEMBL3588856, “Structure-Based Development of a Protein-Protein Interaction Inhibitor Targeting Tumor Necrosis Factor Receptor-Associated Factor 6” (J Med Chem, 2015).
